{"source": "patent US12673039B2", "about": "“Methods of inducing autophagy using coumarin derivatives and related compounds” (Buck Institute for Research on Aging, priority 2019, dated 2026)", "key": {"SH-SY5Y-P301L-TAU cells": {"tested_on": "SH-SY5Y-P301L-TAU cells", "assay": "Phosphorylated-TAU immunoblot in SH-SY5Y-P301L-TAU cells", "assay_type": "cell-based, human", "conditions": "SH-SY5Y cells expressing mutant P301L-TAU, 24 hours", "protocol": "(§1) FIG. 30, panels A-B: FXR modulation enhances HLH-30 expression in human neuronal SH-SY5Y cell. Panel A) TFEB expression in SH-SY5Y cells was determined by immunoblot against TFEB in protein lysates collected after 24 hours of treatment with FXR agonist GW4064 and DMSO control. Panel B) Phosphorylated-TAU levels in SH-SY5Y-P301L-TAU cells was determined by immunoblot against (Ser202, Thr205) in protein lysates collected after 24 hours of treatment with known FXR antagonist Z-gugglsterone (z-GG), DY268 and DMSO control."}, "SH-SY5Y cells": {"tested_on": "SH-SY5Y cells", "assay": "Immunoblot of TFEB, cathepsin-D and SHP-1 in SH-SY5Y cells", "assay_type": "cell-based, human", "conditions": "24 hours", "protocol": "FIG. 23, panels A-H: FXR modulation enhances HLH-30 expression in human neuronal SH-SY5Y cells. Panel A) Effects of AIC106 on human FXR activity was determined in a mammalian one-hybrid based kit assay by quantifying changes in the luciferase activity of FXR ligand (GW4064, GW) induced treatment. [N=3 independent experiments (mean±SD). ****p<0.0001, by one-way ANOVA with Tukey's multiple comparisons test]. Panel B) Protein expression of TFEB, cathepsin-D (CAT-D) and small heterodimer partner-1 (SHP-1) was determined by immunoblot in neuronal SH-SY5Y cells post-24 hours of treatment with AIC106 and DMSO-control. Panel C) AIC106 enhances autophagic flux in neuronal SH-SY5Y cells. Autophagic flux in DMSO-control and AIC106 treated neuronal cells was determined by quantifying levels of autophagosome specific LC3-II protein both in presence and absence of autophagy inhibitor bafliomycin A1 (Baf A, 10 nM). Panel D) Relative fold change in the band intensity of LC3-II protein, normalized to loading control actin. Values are relative to DMSO-control. [N=3 independent experiments (mean±SD). *p<0.05 and ****p<0.0001, by one-way ANOVA with Tukey's multiple comparisons test]. Panel E) Effects of AIC106 treatment for 72 hours on basal TAU and phosphorylated-TAU in differentiated human neuronal SH-SHY5Y and heterozygous TSC1(+/−) mutant SH-SY5Y neuronal cells were quantitated by immunoblotting following total protein extraction. Relative fold change in the band intensity compared to SH-SY5Y control treatment for (panel F) total TAU and (panel G) phosphorylated-TAU, normalized to loading control GAPDH. [N=3 independent experiments (mean±SD). *p<0.05 and **p<0.01, by one-way ANOVA with Sidak's multiple comparisons test]. Panel H) AIC106 treatment improves viability and health of differentiated SH-SY5Y-TSC1(+/−) neuronal cells. Images were taken post-96 hours after treatment of differentiated neuronal cells with AIC106.\nas §1"}}}
{"smiles": "COc1cccc(Cn2cc(C(=O)Nc3ccc(C)c(S(=O)(=O)N4CCOCC4)c3)c(-c3ccc(C)cc3)n2)c1", "note": "[DY268]", "values": [{"measurement": "phosphorylated-TAU expression", "setting": "SH-SY5Y-P301L-TAU cells", "value": "reduced expression of phosphorylated-TAU"}]}
{"smiles": "CC(C)c1onc(-c2c(Cl)cccc2Cl)c1COc1ccc(/C=C/c2cccc(C(=O)O)c2)c(Cl)c1", "note": "[GW4064, reference compound]", "values": [{"measurement": "TFEB protein expression", "setting": "SH-SY5Y cells", "value": "reduced TFEB expression"}]}
{"smiles": "C/C=C1\\C(=O)C[C@H]2[C@@H]3CCC4=CC(=O)CC[C@]4(C)[C@H]3CC[C@]12C", "note": "[Z-guggulsterone]", "values": [{"measurement": "phosphorylated-TAU expression", "setting": "SH-SY5Y-P301L-TAU cells", "value": "reduced expression of phosphorylated-TAU"}]}
